Experimental findings from patent publication US6908935B2, “Calcium receptor modulating agents” (Amgen Inc., priority 2002, dated 2005) are described below.

The experiment deals with T1, human parathyroid cell Ca^2+ receptor (hPCaR) (Homo sapiens, UniProt P41180).
T1 construct: expressed in transfected cells
T1 sequence (P41180 20-1078): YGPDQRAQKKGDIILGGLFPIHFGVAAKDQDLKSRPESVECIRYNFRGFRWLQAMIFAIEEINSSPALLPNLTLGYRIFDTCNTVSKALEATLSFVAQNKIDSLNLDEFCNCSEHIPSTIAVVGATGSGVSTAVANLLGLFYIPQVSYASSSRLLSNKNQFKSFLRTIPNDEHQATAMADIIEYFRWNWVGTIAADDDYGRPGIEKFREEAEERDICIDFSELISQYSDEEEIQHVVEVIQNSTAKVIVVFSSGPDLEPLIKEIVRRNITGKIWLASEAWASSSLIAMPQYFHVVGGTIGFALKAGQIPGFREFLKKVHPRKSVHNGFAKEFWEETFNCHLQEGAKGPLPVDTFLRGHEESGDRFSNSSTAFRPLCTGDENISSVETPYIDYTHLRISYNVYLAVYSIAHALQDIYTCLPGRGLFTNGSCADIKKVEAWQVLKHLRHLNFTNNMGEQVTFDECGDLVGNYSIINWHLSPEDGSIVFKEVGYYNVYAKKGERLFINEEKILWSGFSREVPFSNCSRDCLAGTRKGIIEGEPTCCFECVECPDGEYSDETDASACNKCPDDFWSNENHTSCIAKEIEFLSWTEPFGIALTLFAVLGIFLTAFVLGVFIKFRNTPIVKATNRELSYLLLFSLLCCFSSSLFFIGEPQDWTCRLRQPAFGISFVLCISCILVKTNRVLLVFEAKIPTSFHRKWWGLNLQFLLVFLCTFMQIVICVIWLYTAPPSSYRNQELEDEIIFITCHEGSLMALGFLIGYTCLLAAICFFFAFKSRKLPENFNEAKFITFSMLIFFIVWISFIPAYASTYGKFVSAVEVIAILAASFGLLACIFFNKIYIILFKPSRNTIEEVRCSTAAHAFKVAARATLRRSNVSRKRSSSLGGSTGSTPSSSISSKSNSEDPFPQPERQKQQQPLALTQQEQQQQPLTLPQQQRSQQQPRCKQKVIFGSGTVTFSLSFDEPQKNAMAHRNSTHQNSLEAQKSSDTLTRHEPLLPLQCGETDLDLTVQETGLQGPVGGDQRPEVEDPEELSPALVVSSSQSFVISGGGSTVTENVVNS
In words: [Ca2+]i measurement with fluo-3 in HEK 293 4.0-7 cells stably transfected with hPCaR. It counts as cell-based. The following applies: fluo-3 fluorescence (485/530 nm), effect on [Ca^2+]i. The procedure:
The activities of the compounds of the present invention on calcium receptors were measured. In one embodiment, the measurement was performed in accordance with the method described in Example 4 of Nemeth et al., PCT/US95/13704 (International Publication No. WO96/12697) herein incorporated by reference.
A 4.0-kb NotI-HindIII fragment of the human parathyroid cell Ca^2+ receptor (hPCaR) cDNA was subcloned into the mammalian expression vector pCEP4 (Invitrogen) containing the hygromycin-resistant gene as a selectable marker. This plasmid was transfected into HEK 293 cells by calcium phosphate precipitation. Transfected cells were grown in Dulbecco's modified Eagle's medium containing 10% fetal bovine serum and hygromycin (200 μg/mL). Hygromycin-resistant colonies were subcloned and assayed for hPCaR mRNA by solution hybridization using a ^32P-labeled RNA probe complementary to the (4.0 kb) hPCaR sequence (Garrett, et al., J. Biol. Chem. 270, 12919-12925 (1995)). Clone 7 was used to assess the effects of compounds on [Ca^2+]i. This stably transfected cell line is termed HEK 293 4.0-7. For measurements of [Ca^2+]i, the cells were recovered from tissue culture flasks by brief treatment with 0.02% EDTA and then washed and resuspended in PCB containing 1 mM CaCl2 and 0.1% Bovine Serum Albumin (“BSA”). The cells were loaded with fluo-3 by incubation for 30 min at 37° C., with parathyroid cell buffer (126 mM NaCl, 4 mM KCl, 1 mM MgSO4, 0.7 mM K2HPO/KH2PO4, 20 mM HEPES.NaOH (pH 7.45)) containing 0.5% BSA in lmM CaCl2 and 2 μM fluo-3 acetoxymethyl ester. The cells were subsequently washed, each test compound was added to the cells and the fluorescence was recorded by using excitation and emission wavelengths of 485 and 530 nm, respectively.
With `COc1cccc([C@@H](C)NCc2cccc(-c3cncc(C(N)=O)c3)c2)c1` [5-(3-((((1R)-1-(3-(methyloxy)phenyl)ethyl)amino)methyl)phenyl)-3-pyridinecarboxamide], the EC50 was at most 10 µM.
In the case of `C[C@@H](NCc1cccc(-c2ccccn2)c1)c1cccc2ccccc12` [(1R)-1-(1-naphthalenyl)-N-((3-(2-pyridinyl)phenyl)methyl)ethanamine], the EC50 is at most 10 µM.
To `C[C@@H](NCc1cccc(-c2ccc(C(F)(F)F)nc2)c1)c1cccc2ccccc12` [(1R)-1-(1-naphthalenyl)-N-((3-(6-(trifluoromethyl)-3-pyridinyl)phenyl)methyl)ethanamine] belongs at most 10 µM.
To `C[C@@H](NCc1ccc(OCC(F)(F)F)c(-c2ccc(C(F)(F)F)cc2)c1)c1cccc2ccccc12` [(1R)-1-(1-naphthalenyl)-N-((6-((2,2,2-trifluoroethyl)oxy)-4′-(trifluoromethyl)-1,1′-biphenyl-3-yl)methyl)ethanamine] belongs at most 10 µM.
On to `C[C@@H](NCc1cccc(-c2ccccn2)c1)c1ccc2ccccc2c1` [(1R)-1-(2-naphthalenyl)-N-((3-(2-pyridinyl)phenyl)methyl)ethanamine], for which the EC50 is at most 10 µM.
The figure for `COCCOc1cccc([C@@H](C)NCc2ccc(OC)c(-c3ccc(C(F)(F)F)cc3)c2)c1` [(1R)-1-(3-((2-(methyloxy)ethyl)oxy)phenyl)-N-((6-(methyloxy)-4′-(trifluoromethyl)-1,1′-biphenyl-3-yl)methyl)ethanamine] is at most 10 µM; for `COc1cccc([C@@H](C)NCc2cccc(-c3nccs3)c2)c1` [(1R)-1-(3-(methyloxy)phenyl)-N-((3-(1,3-thiazol-2-yl)phenyl)methyl)ethanamine] it is at most 10 µM.
The molecule `COc1cccc([C@@H](C)NCc2cccc(-c3cnccn3)c2)c1` [(1R)-1-(3-(methyloxy)phenyl)-N-((3-(2-pyrazinyl)phenyl)methyl)ethanamine] had an EC50 of at most 10 µM.
The figure for `COc1cccc([C@@H](C)NCc2cccc(-c3ccccn3)c2)c1` [(1R)-1-(3-(methyloxy)phenyl)-N-((3-(2-pyridinyl)phenyl)methyl)ethanamine] is at most 10 µM; for `COc1cccc([C@@H](C)NCc2cccc(-c3cncnc3)c2)c1` [(1R)-1-(3-(methyloxy)phenyl)-N-((3-(5-pyrimidinyl)phenyl)methyl)ethanamine] it is at most 10 µM; for `COc1cccc([C@@H](C)NCc2cccc(-c3ccc(OC)nn3)c2)c1` [(1R)-1-(3-(methyloxy)phenyl)-N-((3-(6-(methyloxy)-3-pyridazinyl)phenyl)methyl)ethanamine] it is at most 10 µM.
`COc1cccc([C@@H](C)NCc2cccc(-c3ccc(C)nc3)c2)c1` [(1R)-1-(3-(methyloxy)phenyl)-N-((3-(6-methyl-3yridinyl)phenyl)methyl)ethanamine] showed an EC50 of at most 10 µM.
The figure for `COc1cccc([C@@H](C)NCc2ccc(OC)c(-c3nccs3)c2)c1` [(1R)-1-(3-(methyloxy)phenyl)-N-((4-(methyloxy)-3-(1,3-thiazol-2-yl)phenyl)methyl)ethanamine] is at most 10 µM; for `COc1cccc([C@@H](C)NCc2ccc(OC)c(-c3cnc(OCC(F)(F)F)nc3)c2)c1` [(1R)-1-(3-(methyloxy)phenyl)-N-((4-(methyloxy)-3-(2-((2,2,2-trifluoroethyl)oxy)-5-pyrimidinyl)phenyl)methyl)ethanamine] it is at most 10 µM; for `COc1cccc([C@@H](C)NCc2ccc(OC)c(-c3cnccn3)c2)c1` [(1R)-1-(3-(methyloxy)phenyl)-N-((4-(methyloxy)-3-(2-pyrazinyl)phenyl)methyl)ethanamine] it is at most 10 µM.
To `COc1cccc([C@@H](C)NCc2ccc(OC)c(-c3ncccn3)c2)c1` [(1R)-1-(3-(methyloxy)phenyl)-N-((4-(methyloxy)-3-(2-pyrimidinyl)phenyl)methyl)ethanamine] belongs at most 10 µM.
The figure for `COc1cccc([C@@H](C)NCc2ccc(OC)c(-c3cccs3)c2)c1` [(1R)-1-(3-(methyloxy)phenyl)-N-((4-(methyloxy)-3-(2-thienyl)phenyl)methyl)ethanamine] is at most 10 µM; for `COc1cccc([C@@H](C)NCc2ccc(OC)c(-c3cccnc3)c2)c1` [(1R)-1-(3-(methyloxy)phenyl)-N-((4-(methyloxy)-3-(3-pyridinyl)phenyl)methyl)ethanamine] it is at most 10 µM.
Molecule `COc1cccc([C@@H](C)NCc2ccc(OC)c(-c3ccsc3)c2)c1` [(1R)-1-(3-(methyloxy)phenyl)-N-((4-(methyloxy)-3-(3-thienyl)phenyl)methyl)ethanamine] displayed an EC50 of at most 10 µM.
The figure for `COc1cccc([C@@H](C)NCc2ccc(OC)c(-c3nnc(C(F)(F)F)o3)c2)c1` [(1R)-1-(3-(methyloxy)phenyl)-N-((4-(methyloxy)-3-(5-(trifluoromethyl)-1,3,4oxadiazol-2-yl)phenyl)methyl)ethanamine] is at most 10 µM; for `COc1cccc([C@@H](C)NCc2ccc(OC)c(-c3cncnc3)c2)c1` [(1R)-1-(3-(methyloxy)phenyl)-N-((4-(methyloxy)-3-(5-pyrimidinyl)phenyl)methyl)ethanamine] it is at most 10 µM.
Molecule `COc1cccc([C@@H](C)NCc2ccc(OC)c(-c3ccc(OCC(F)(F)F)nc3)c2)c1` [(1R)-1-(3-(methyloxy)phenyl)-N-((4-(methyloxy)-3-(6-((2,2,2-trifluoroethyl)oxy)-3-pyridinyl)phenyl)methyl)ethanamine] gave an EC50 of at most 10 µM.
`COc1cccc([C@@H](C)NCc2ccc(OC)c(-c3ccc(C(F)(F)F)nc3)c2)c1` [(1R)-1-(3-(methyloxy)phenyl)-N-((4-(methyloxy)-3-(6-(trifluoromethyl)-3-pyridinyl)phenyl)methyl)ethanamine] came in with an EC50 of at most 10 µM.
The figure for `COc1cccc([C@@H](C)NCc2ccc(OC)c(-c3ccc4ncccc4c3)c2)c1` [(1R)-1-(3-(methyloxy)phenyl)-N-((4-(methyloxy)-3-(6-quinolinyl)phenyl)methyl)ethanamine] is at most 10 µM; for `COc1cccc([C@@H](C)NCc2ccc(OC)c(-c3ccc4nccnc4c3)c2)c1` [(1R)-1-(3-(methyloxy)phenyl)-N-((4-(methyloxy)-3-(6-quinoxalinyl)phenyl)methyl)ethanamine] it is at most 10 µM.
To `COc1cccc([C@@H](C)NCc2ccc(OC)c(-c3cccc(OC(F)(F)F)c3)c2)c1` [(1R)-1-(3-(methyloxy)phenyl)-N-((6-(methyloxy)-3′-((trifluoromethyl)oxy)-1,1′-biphenyl-3-yl)methyl)ethanamine] belongs at most 10 µM; to `COc1cccc([C@@H](C)NCc2ccc(OC)c(-c3cccc(C(F)(F)F)c3)c2)c1` [(1R)-1-(3-(methyloxy)phenyl)-N-((6-(methyloxy)-3′-(trifluoromethyl)-1,1′-biphenyl-3-yl)methyl)ethanamine], at most 10 µM.
The figure for `COc1cccc([C@@H](C)NCc2ccc(OC)c(-c3ccc(OC(F)(F)F)cc3)c2)c1` [(1R)-1-(3-(methyloxy)phenyl)-N-((6-(methyloxy)-4′-((trifluoromethyl)oxy)-1,1′-biphenyl-3-yl)methyl)ethanamine] is at most 10 µM.
